pIC50: −log10 of the molar value.
What was measured:
HER-2 = target: T1, HER-2 (Homo sapiens, UniProt P04626); assay: HER-2 Kinase Assay; format: biochemical; conditions: read-out: HER2 IC50;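 also: HER2 kinase reaction read by scintillation counting, inhibition scaled between maximum and minimum signals set on each plate, IC50 from inhibition against log concentration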
T1 construct: purchased Proqinase (Freiburg, Germany)

BT474 breast carcinoma = assay: In vitro cell proliferation inhibition, BT474; format: cell-based; conditions: Homo sapiens, BT-474; BT474 cells, 14C-thymidine incorporation; read-out: IC50 BT474
Source text: (§1) The ability of a test compound to inhibit unregulated in vitro cell proliferation may be determined by measuring incorporation of ^14C-labelled thymidine into newly synthesized DNA within cell lines derived from carcinomas originating from several tissues. Accordingly, the effect of a test compound on proliferation of cells with a variety of phenotypes may be determined.
(§2) Carcinoma cell lines used include the HeLa cervical adenocarcinoma from the American Type Culture Collection (ATCC Cat. #CCL2), SK-OV-3 ovarian carcinoma (ATCC Cat. #HTB-77), MCF-7 breast carcinoma (ATCC Cat. #HTB-22), BT474 breast carcinoma (ATCC Cat. #HTB-20), SKBR3 breast carcinoma (ATCC Cat. #HTB-30), A431 epidermoid carcinoma (ATCC Cat. #CRL-1555) and NCI-N87 gastric carcinoma (ATCC Cat. #CRL-5822).
(§3) The carcinoma cells are trypsinized and counted. The cells (3000-8000 count) are added to each well of a 96-well CytoStar tissue culture treated scintillating microplate (Amersham #RPNQ0160) in complete medium (100 μL) and the plate is then incubated in complete medium for 24 hrs at 37° C. in an inert atmosphere containing 5% CO2.
(§4) Test compound (1 μL) in 100% DMSO is added to the plate test-wells with DMSO only added to control-wells. The plate is incubated in complete medium for a second 24 hr period at 37° C. in an atmosphere containing 5% CO2.
(§5) An aliquot of a solution of Methyl ^14C-thymidine (56 mC/mmol) (NEN #NEC568 or Amersham #CFA532) and complete medium (20 μL to provide 0.2 μCi/well) is then added to each well and the plate is incubated for a third 24 hr period at 37° C. in an atmosphere containing 5% CO2.
(§6) The plate contents are then discarded, the plate is washed twice with PBS (200 μL) and then PBS (200 μL) is added to each well. The plate is sealed and the degree of methyl ^14C-thymidine incorporation is quantified on a Packard Top Count.
(§7) Cell proliferation of the Hela cell line was measured using the ATP-Lite method as described in the ATP Lite Kit (Perkin-Elmer Kit Number 6106941) or the C^14 method as described above. Cell proliferation of the other cell lines was measured using the C^14 method.
(§8) The term “NT” means that the compound indicated was not tested in a particular cell line. The lack of such testing is not intended to imply a belief that the compound is not otherwise active in a particular cell line or any other cell line not tested.

[1] = test system: HeLa cervical adenocarcinoma; assay: In vitro cell proliferation inhibition, HeLa; format: cell-based; conditions: Homo sapiens; HeLa cell line; ATP-Lite method or C14 thymidine method; read-out: HeLa IC50
SKBR3 breast carcinoma = assay: In vitro cell proliferation inhibition, SKBR3; format: cell-based; conditions: Homo sapiens, SK-BR-3; SKBR3 cells, 14C-thymidine incorporation; read-out: IC50 SKBR3
Source text: as §1, §2, §3, §4, §5, §6, §7, §8

MCF-7 breast carcinoma = assay: In vitro cell proliferation inhibition, MCF-7; format: cell-based; conditions: Homo sapiens, MCF7; MCF-7 cells, 14C-thymidine incorporation
Source text: as §1, §2, §3, §4, §5, §6, §7, §8

[2] = test system: SK-OV-3 ovarian carcinoma; assay: In vitro cell proliferation inhibition, SK-OV-3; format: cell-based; conditions: Homo sapiens; SK-OV-3 cells, 14C-thymidine incorporation
Source text: as §1, §2, §3, §4, §5, §6, §7, §8

[3] = test system: NCI-N87 gastric carcinoma; assay: In vitro cell proliferation inhibition, NCI-N87; format: cell-based; conditions: Homo sapiens, NCI-N87; N87 cells, 14C-thymidine incorporation; read-out: IC50 N87
Source text: as §1, §2, §3, §4, §5, §6, §7, §8

[4] = test system: A431 epidermoid carcinoma cells; assay: A431 Human Tumor Xenograft Model; format: in vivo, nu/nu mice; conditions: treatment groups 5-10, 100 mg/kg oral once daily for 30 days
Source text: The A431 epidermoid carcinoma cell line overexpresses EGFR, activating signaling pathways responsible for driving the proliferation, invasion and survival of cancer cells and forming tumors in nude mice (Giard D J, Aaronson S A, Todaro G J, Arnstein P, Kersey J H, Dosik H, Parks W P, In vitro cultivation of human tumors: establishment of cell lines derived from a series of solid tumors, J. Natl. Cancer Inst., 1973, 51, 1417-1423; and, Kawamoto T, Sato J D, Le A, Polikoff J, Sato G H, Mendelsohn J, Growth stimulation of A431 cells by epidermal growth factor: identification of high-affinity receptors for epidermal growth factor by an anti-receptor monoclonal antibody, Proc. Natl. Acad. Sci. USA, 1983, 80, 1337-1341).
Female nu/nu mice (Charles River; 8 to 9 weeks of age) were implanted subcutaneously in the flank with 4×10^6 A431 epidermoid carcinoma cells (obtained from the American Type Culture Collection, ATCC Cat. #CRL-1555). Animals were weighed twice weekly during the study and examined frequently.
Tumor size was monitored twice weekly and then daily as the neoplasms reached the target weight range (about 75 mg). Animals were pair-matched when tumors were in the 62 to 126 mg range (group mean tumor size: 70 to 74 mg). Estimated tumor weight was calculated using the formula of Example 4.
A test compound was orally administered daily in the test treatment group after the tumor reached the target weight. For treatment groups 1 and 2, each dose of test compound was administered once daily for 25 days. For treatment group 3, each dose of test compound was administered twice daily for 25 days. For treatment group 4, the test compound was administered twice daily for 30 days. For treatment group 5-10, the test compound was administered once daily for 30 days.
(§9) Statistical significance was evaluated by comparing the vehicle group to the test group using a two tailed Students t test. The term “NC” means that the P value for the treatment group indicated was not calculated. The lack of such calculation is not intended to imply a belief that the activity of the compound is not otherwise statistically significant in this particular cell line or in any other cell line not tested.

[5] = test system: N87 gastric carcinoma cells; assay: N87 Human Tumor Xenograft Model; format: in vivo, nu/nu mice; conditions: treatment groups 5-10, 100 mg/kg oral once daily for 30 days
Source text: The N87 gastric carcinoma cell line overexpresses HER-2 as a result of gene amplification and forms tumors in nude mice (Kasprzyk P G, Song S U, Di Fiore P P, King C R, Therapy of an animal model of human gastric cancer using a combination of anti-erbB-2 monoclonal antibodies, Cancer Res., 1992, 52, 2771-2776).
Female nu/nu mice (Charles River; 8 to 9 weeks of age) were implanted subcutaneously with from 3×10^6 to 5×10^6 N87 gastric carcinoma cells (obtained from the American Type Culture Collection, ATCC Cat. #CRL-5822) in the flank. Animals were weighed twice weekly during the study and examined frequently.
Tumor size was monitored twice weekly and then daily as the neoplasms reached the target weight range (about 75 mg). Animals were pair-matched when tumors were in the 62 to 126 mg range (group mean tumor size: 70 to 74 mg). Estimated tumor weight was calculated using the formula: […]
A test compound was orally administered daily in the test treatment group after the tumor reached the target weight. For treatment group 1, the test compound was administered once daily for 35 days. For treatment group 2, the test compound was administered once daily for 30 days. For treatment group 3, each dose of test compound was administered once daily for 30 days. For treatment group 4, each dose of test compound was administered once daily for 36 days. For treatment group 5-10, the test compound was administered once daily for 30 days.
Tumor weight was measured daily for subjects (n=8) in the test group and the matched subjects (n=8) in the vehicle-treated group.
The tumor growth inhibition (in percent) was calculated on the last day of the study using the formula: […]
as §9

EGFR = target: T2, EGFR (Homo sapiens, UniProt P00533); assay: EGFR Kinase Assay; format: biochemical;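 also: recombinant GST-tagged EGFR expressed in Sf9 cells, phosphorylating biotinylated polyGluTyr with γ-33P ATP on Streptavidin Flashplates, 1 h at 30 °C, scintillation counting, inhibition relative to plate maximum and minimum signals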
T2 construct: The intracellular portion of EGFR started at nucleotide 2189 (corresponding to amino acid 667) and ended at the termination codon; made in house; host or cells: Sf9 insect cells (baculovirus)

[6] = test system: A431 epidermoid carcinoma; assay: In vitro cell proliferation inhibition, A431; format: cell-based; conditions: Homo sapiens, A-431; A431 cells, 14C-thymidine incorporation; read-out: IC50 A431
Source text: as §1, §2, §3, §4, §5, §6, §7, §8

T1 sequence (P04626 679-1255): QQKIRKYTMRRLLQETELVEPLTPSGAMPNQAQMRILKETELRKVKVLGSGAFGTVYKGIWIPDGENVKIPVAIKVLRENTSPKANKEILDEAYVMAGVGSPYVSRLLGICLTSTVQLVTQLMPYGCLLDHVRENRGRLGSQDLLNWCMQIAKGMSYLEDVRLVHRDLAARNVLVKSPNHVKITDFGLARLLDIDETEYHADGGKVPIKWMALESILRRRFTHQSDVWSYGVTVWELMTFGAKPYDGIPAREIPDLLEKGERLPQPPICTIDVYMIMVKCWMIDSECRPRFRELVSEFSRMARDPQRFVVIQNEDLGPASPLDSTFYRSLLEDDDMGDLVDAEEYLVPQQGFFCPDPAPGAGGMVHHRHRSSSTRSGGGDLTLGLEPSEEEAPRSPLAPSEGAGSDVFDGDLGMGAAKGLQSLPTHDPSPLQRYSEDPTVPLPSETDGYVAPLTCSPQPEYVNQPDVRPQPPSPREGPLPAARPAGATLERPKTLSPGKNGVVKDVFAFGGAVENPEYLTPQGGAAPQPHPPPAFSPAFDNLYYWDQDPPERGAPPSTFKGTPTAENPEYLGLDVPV
T2 sequence (P00533 669-1210 limits assumed): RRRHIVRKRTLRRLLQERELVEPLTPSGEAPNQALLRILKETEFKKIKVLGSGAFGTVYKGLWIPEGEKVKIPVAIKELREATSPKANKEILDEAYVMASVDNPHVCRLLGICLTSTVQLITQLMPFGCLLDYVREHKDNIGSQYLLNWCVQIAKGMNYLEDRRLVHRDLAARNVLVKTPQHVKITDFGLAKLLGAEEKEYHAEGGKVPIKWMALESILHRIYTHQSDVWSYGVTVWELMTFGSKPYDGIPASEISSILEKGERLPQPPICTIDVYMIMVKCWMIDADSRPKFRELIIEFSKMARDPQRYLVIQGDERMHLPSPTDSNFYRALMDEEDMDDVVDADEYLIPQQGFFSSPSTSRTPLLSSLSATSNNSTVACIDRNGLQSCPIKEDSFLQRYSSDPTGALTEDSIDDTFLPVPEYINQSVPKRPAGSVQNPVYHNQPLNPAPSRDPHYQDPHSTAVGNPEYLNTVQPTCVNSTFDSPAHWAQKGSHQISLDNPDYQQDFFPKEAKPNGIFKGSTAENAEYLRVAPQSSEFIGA

Structure (SMILES)	pIC50 (HER-2)	pIC50 (BT474 breast carcinoma)	pIC50 [1]	pIC50 (SKBR3 breast carcinoma)	pIC50 (MCF-7 breast carcinoma)	pIC50 [2]	pIC50 [3]	A431 Tumor Growth Inhibition TGI [4]	N87 Tumor Growth Inhibition TGI [5]	pIC50 (EGFR)	pIC50 [6]
Nc1ncnc(Nc2ccc(OCc3cccc(F)c3)c(Cl)c2)c1/C=N/OCCN1CCCCC1 [Cpd 94, (5E)-4-amino-6-[3-chloro-4-(3-fluoro-benzyloxy)-phenylamino]-pyrimidine-5-carbaldehyde O-(2-piperidin-1-yl-ethyl)-oxime]	7.40	6.30	5.21	6.30	6.00	6.00	6.40	66%	47.1%	7.70	
Nc1ncnc(Nc2ccc(OCc3cccc(F)c3)c(Cl)c2)c1/C=N/OCCN1CCOCC1 [Cpd 93, (5E)-4-amino-6-[3-chloro-4-(3-fluoro-benzyloxy)-phenylamino]-pyrimidine-5-carbaldehyde O-(2-morpholin-4-yl-ethyl)-oxime]	8.10	7.40	4.66	7.70	4.00	4.00	7.15	64.0%	59.9%	7.70	6.22
